Bounds are passed on as bounds.

By melting point is commonly meant the temperature of the solid-liquid transition. For the molecule `O=C(Cl)ON1C(=O)c2ccccc2C1=O`, the melting point lay in the range of 113 to 115 °C.

`COC(=O)C(=O)Oc1cc(-n2c(=O)cc(C(F)(F)F)n(C)c2=O)c(F)cc1Cl` gave a melting point of 103 to 105 °C.

`Cn1c(Sc2ccc(C(=O)O)c(Cl)c2)n[nH]c1=O` came in with a melting point of 236 °C.

Consider `COC(=O)CCNC(=O)COc1ccc2c(c1)CC(NS(=O)(=O)c1ccc(Cl)cc1)C2` (stereo not drawn), for which the melting point lay within 126 to 128 °C.

In turn, `C#CCN1C(=O)C2(CCCC2)c2ccccc21` had a melting point of 109 to 111 °C.

Molecule `CC(C)NCC(O)COc1ccc(OCCn2cccn2)cc1` (stereo not drawn) showed a melting point of 37 to 39 °C.

As to `C=Cc1ccc(-c2cc(NC(=O)C3Cc4ccccc4C3)n[nH]2)cc1`, the melting point was in the range of 193 to 195 °C.

`CCC1N=C(c2ccccc2Cl)c2cc(CCC(=O)N3CCOCC3)sc2-n2c(C)nnc21` (stereo not drawn) came in with a melting point of 145 to 147 °C.

`CCOC(OCC)c1ncn(CCC(O)(c2ccc(F)cc2F)n2cncn2)n1` (stereo not drawn) gave a melting point of 85 to 87 °C.

As to `COCCC1(C(=O)N[C@@H](Cc2ccc(N3C(=O)c4cccc(C#N)c4C3=O)cc2)C(=O)OC)CCCC1`, the melting point was in the range of 122 to 126 °C.

Turning to `Cc1c(C(=O)O)ccc(S(C)(=O)=O)c1N(C)C`, the melting point is 113 to 114 °C.

`Nc1ccccc1C(=O)NCCCCN1CCC(OC(c2ccccc2)c2ccccc2)CC1` came in with a melting point of 74 to 75 °C.

`O=C(Nc1ccccc1C(=O)NCCc1ncc[nH]1)c1ccc(-c2ccccc2)cc1` displayed a melting point of 197 to 201 °C.

The molecule `O=C(OCc1ccccc1)N1CCC(O)(c2ccc(C(F)(F)F)cc2)CC1` yielded a melting point of 102 °C.

For the molecule `O=[N+]([O-])c1cc(C(F)(F)F)ccc1N1CCc2ccccc21`, the melting point was in the range of 89 to 92 °C.

The molecule `O=C(Nc1ccc(Cl)c(C(F)(F)F)c1)Nc1ccccc1P(=O)(O)O` returned a melting point of 153 to 157 °C.

In turn, `CN1C(=O)C(c2cccc(-c3cccnc3F)c2)(c2cnn(CC(F)(F)F)c2)N=C1N` (stereo not drawn) returned a melting point of 104 to 106 °C.

Regarding `CCc1nc2c(N)nc3ccccc3c2o1`, the melting point was 175 to 178 °C.

For `O=S(=O)(O)CCCNC1CCCCCC1`, the melting point lay within 341 to 343 °C.

The molecule `COc1ccc(N(C)c2nc(C)nc3oc4c(c23)CCCC4)cc1` yielded a melting point of 147 to 149 °C.

For the molecule `CC1(OCc2ccccc2F)COC(C(C)(C)C)OC1` (stereo not drawn), the melting point lay in the range of 50 to 52 °C.

Molecule `COc1nccc(C(F)(F)F)c1S(=O)(=O)Nc1nc2c(OC)cnc(OC)n2n1` had a melting point of 214 to 216 °C.

Molecule `O=S(=O)(Nc1ccc(Cl)cc1C1=NN(c2ccccc2)CC1)C(F)(F)F` registered a melting point of 138 to 163 °C.

Consider `COc1cc(C)nc(NC(=O)NS(=O)(=O)c2c(Br)csc2C(=O)c2cccs2)n1`, for which the melting point came to 106 °C.

Molecule `O=C(c1ccccc1)C(c1ccc(Cl)cc1Cl)C(F)n1cncn1` (stereo not drawn) yielded a melting point of 104 to 108 °C.

`CC(C)OP(=O)(COCCOc1nc(N)nc(N)c1C=O)OC(C)C` showed a melting point of 225 to 227 °C.

The molecule `CCOC(=O)CC/C=C(\C)c1sccc1Br` had a melting point of 62 to 64 °C.

Molecule `COc1cc2c(cc1OC)CC1(CC2)NC(=O)CC(C)C1=O` (stereo not drawn) gave a melting point of 168 to 169 °C.

In turn, `CC(CC1(c2ccccc2)C=CCC=C1)N(C)C` (stereo not drawn) came in with a melting point of 87 to 90 °C.

`OCC1OC(n2cnc3c(Cl)ncc(F)c32)C(O)C1O` (stereo not drawn): the melting point fell in the range of 187 to 189 °C.

Molecule `O=C(NCc1ccc(Cl)cc1)c1cnc2c(F)cc(C#CCCCO)cc2c1O` yielded a melting point of 208 to 209 °C.

As to `COCc1ccc(N)c(O)c1`, the melting point is 108 °C.

Turning to `CC(C)(C)OC(=O)Nc1ccc(C#Cc2ccc(Cl)cc2)cc1N`, the melting point was 170 to 173 °C.

As for `N#CC1=CC2(CCSCC2)Oc2ccc([N+](=O)[O-])cc21`, the melting point was 175 to 176 °C.

The molecule `Nc1cc(Cl)c(Cc2ccc(C(=O)c3cnc(Cl)c(Cl)c3)cc2)c(Cl)c1` registered a melting point of 140 to 145 °C.

Take `CC(C)(C)OC(=O)CS(=O)c1cccc(-c2nc(=O)c3ccccc3s2)n1` (stereo not drawn): the melting point came out at 159 °C.

On to `O=C(O)Cc1ccc(N2C(=O)C3CCCCC3C2=O)cc1` (stereo not drawn), for which the melting point lay within 219 to 221 °C.

In turn, `CC1(C)CSc2sc(S(N)(=O)=O)cc2C1O` (stereo not drawn) came in with a melting point of 158 to 159 °C.

The molecule `Cc1c(SCCCn2c([N+](=O)[O-])cnc2C)ccnc1CSc1ccncc1` came in with a melting point of 140 to 142 °C.

For the molecule `COc1ccc(C(=O)O)cc1C(=O)NCc1ccc(C(F)(F)F)cc1`, the melting point stood at 236 °C.

`Cc1ccc(NS(=O)(=O)c2ccc(N3CCNC3=O)cc2)cc1` showed a melting point of 218 to 220 °C.

`O=C(c1cc2cc(Br)ccc2o1)C12CC3CC(CC(C3)C1)C2` showed a melting point of 115 to 117 °C.

In the case of `C=CCn1c(C)nc2c3c(ccc21)[C@@H](OCCF)[C@H](OC(=O)C(C)(C)C)[C@@H](c1ccccc1)O3`, the melting point was 119 °C.

In the case of `CCCc1nc2c(N)nc3ccc(-c4ccc(F)cc4CN)cc3c2s1`, the melting point is 198 to 201 °C.

In turn, `CSc1c(C(=O)O)ccc(C)c1C` had a melting point of 118 to 120 °C.

On to `CC(C)CCNC1=NS(=O)(=O)c2sc(Cl)cc2N1`, for which the melting point fell in the range of 230 to 232 °C.

On to `CC(C)(C)c1cc(-c2ccc(NC(=O)c3ccccc3C(=O)O)cc2)cc(C(C)(C)C)c1O`, for which the melting point lay within 196 to 198 °C.

Take `O=C1CC(c2ccccc2)=Nc2ccccc2N1Cc1ccccc1`: the melting point lay within 122 to 123 °C.

`O=C(O)c1cccc(OCCCc2cc(-c3ccc(C(F)(F)F)cc3)no2)c1` had a melting point of 133 to 134 °C.

Take `Nc1c2c(nc3ccccc13)C1C=CC2C1` (stereo not drawn): the melting point was 123 °C.

`Cc1[nH]c2ccc(/C=C/C(=O)OCc3ccccc3)cc2c1CN(C)C` showed a melting point of 174 to 177 °C.

Regarding `CC(C)Oc1ccc(CCCOc2cc(CCC(=O)O)n(C3CCCCC3)n2)c(Oc2ncc(C(F)(F)F)cc2Cl)c1`, the melting point was 114 to 115 °C.

Molecule `Cn1c2ccccc2c2c3ccccc3ccc21` registered a melting point of 116 to 118 °C.

On to `Cn1c(CC#N)ccc1C(=O)c1ccc(Cl)cc1Cl`, for which the melting point fell in the range of 129 to 130 °C.

Regarding `CC1(C)CCCC(C)(C)N1Oc1ccc(C(F)(F)F)cc1[N+](=O)[O-]`, the melting point was in the range of 54 to 55 °C.

`CCOC(=O)C1(Cc2ccc(OC)c(OC)c2)C(=O)NCC1c1ccc(OC)c(OC)c1` (stereo not drawn) came in with a melting point of 146 to 149 °C.

Turning to `N#Cc1ccc(CCc2ccc(OCc3ccc4ccccc4n3)cc2)cc1`, the melting point is 156 to 158 °C.

On to `O=C(Nc1ccc2ccc(-c3cccc(F)c3)nc2n1)c1cccc(Br)c1`, for which the melting point stood at 208 °C.

Turning to `COc1ccc(C(=O)Nc2c(Cl)cncc2Cl)c2c1oc1ccc(Cl)cc12`, the melting point is above 250 °C.

With `Clc1cccc(Cl)c1CSCc1c(Cl)cccc1Cl`, the melting point is 128 to 130 °C.

`C=CCNc1c(F)cc2c(=O)c(C(=O)O)cn(-c3nc(N)c(F)cc3F)c2c1Cl` displayed a melting point of 205 to 208 °C.

Molecule `CC#CC(C)Oc1cc(N)c(Cl)cc1C(=O)O` (stereo not drawn) had a melting point of 114 to 116 °C.

As for `COc1cc(-c2nc3ccccc3n2Cc2ccc(Cl)c(Cl)c2)cc(OC)c1OC`, the melting point was 145 °C.

As for `COc1cc(OC)c2c(c1)OC(C(C)(C)C#N)CC2=O` (stereo not drawn), the melting point was determined as 170 °C.

The molecule `CC(C)Cn1c(CNC(=O)OC(C)(C)C)c(-c2ccccc2)c2cc(O)ccc2c1=O` showed a melting point of 218 to 219 °C.

Turning to `CN(C(CCn1c(=O)cc(Cl)[nH]c1=O)C(=O)NO)S(=O)(=O)c1ccc(Oc2ccncc2)cc1` (stereo not drawn), the melting point lay in the range of 163 to 165 °C.

Regarding `O=C(CNC(=O)c1ccccc1C(=O)O)Nc1ccc(C(=O)C[N+](=O)[O-])c(Cl)c1`, the melting point fell in the range of 206 to 209 °C.

For `O=C(Nc1ccccc1)Nc1cccc(Nc2ncnc3[nH]cc(C(=O)c4ccccc4)c23)c1`, the melting point was above 300 °C.

Regarding `Cc1cc(O)cc(-c2nn(CC#N)cc2-c2cc(NC[C@H](C)O)nc(-c3cccnc3)n2)c1`, the melting point worked out at 236 °C.

In turn, `Oc1ccc2c(c1)OCC(c1cccc(C(F)(F)F)c1)C2c1ccc(OCCN2CCCC2)cc1` (stereo not drawn) came in with a melting point of 87 to 89 °C.

For `NC[C@@H]1C[C@@H](CC(=O)O)C(=O)N1CCCc1ccccc1`, the melting point lay in the range of 188 to 192 °C.

The molecule `CCC(=O)c1cn(C)cc(-c2cccc(C(F)(F)F)c2)c1=O` returned a melting point of 136 to 138 °C.

The molecule `COC(=S)c1cc(F)c(-c2ccccc2)nc1Nc1ccc(F)cc1F` came in with a melting point of 128 °C.

In turn, `O=C(Cc1ccccc1[N+](=O)[O-])c1ccccc1F` gave a melting point of 84 to 86 °C.

Molecule `Cc1cc(=O)c2c(OCCOc3ccccc3)cccc2o1` gave a melting point of 142 to 144 °C.

`CC(O)(C(=O)Nc1ccc(Cl)cc1)c1ccc(F)cc1Cl` (stereo not drawn) showed a melting point of 167 °C.

Turning to `CCNC(=O)c1ccccc1C(F)(F)F`, the melting point fell in the range of 73 to 76 °C.

The molecule `O=C1CNC=Nc2[nH]cnc21` had a melting point of 260 °C.

In turn, `CCOC(=O)C(C(=O)OCC)=C1CN(C)C(=O)c2ccccc2N1` had a melting point of 139 °C.

On to `COCc1cc(-c2ncc3[nH]c4cccc(Cc5ccccc5Cl)c4c3c2COC)no1`, for which the melting point fell in the range of 178 to 180 °C.

`O=C(Nc1ccc(-c2ccc(C(=O)N3CCN4CCC3CC4)o2)cc1)Nc1cccc(C(F)(F)F)c1`: the melting point came to 171 °C.

As to `COc1cccc(OC)c1CNC(=O)Cc1c(-c2ccccc2C)c2cc(Cl)ccc2oc1=O`, the melting point was in the range of 194 to 196 °C.

The molecule `O=C(Cn1ccnc1[N+](=O)[O-])c1cccnc1` registered a melting point of 125 to 127 °C.

In the case of `CC(C)(O)CNC(=O)CC1CN=C(c2cc3cc(Oc4ccc(S(C)(=O)=O)nc4)ccc3[nH]2)S1` (stereo not drawn), the melting point lay in the range of 178 to 179 °C.

`COC(=O)c1ccc2nc3scc(C)c3c(=O)n2c1` registered a melting point of 208 to 209 °C.

In the case of `CCOC(=O)c1ccc(C(C(N)=O)C(C)c2cc(OC)ccc2N2CCCCC2)cc1` (stereo not drawn), the melting point lay within 131 to 132 °C.

The molecule `NS(=O)(=O)c1cc2[nH]c(C(Cl)Cl)nc2cc1Cl` gave a melting point of 225 to 227 °C.

Molecule `O=C1CC(c2cccc(-n3ccnn3)c2)=Nc2ccc(-c3ccccc3F)cc2N1` came in with a melting point of 209 to 212 °C.

For the origin of these results see a melting point compilation (Tetko et al.; mined from patent text by program, amines drawn as free bases though some values may be those of a salt).
